The values that follow come from patent US20110111115A1, “REBAUDIOSIDE A POLYMORPHS AND METHODS TO PREPARE THEM” (priority 2009, published 2011).

The nature of this data set: Solubility in water of the rebaudioside A polymorph. Type of data set: physicochemical. Conditions: 25° C.

On to `C=C1C[C@@]23CC[C@H]4[C@@](C)(CCC[C@@]4(C)C(=O)O[C@@H]4O[C@H](CO)[C@@H](O)[C@H](O)[C@H]4O)[C@@H]2CC[C@]1(O[C@@H]1O[C@H](CO)[C@@H](O)[C@H](O[C@@H]2O[C@H](CO)[C@@H](O)[C@H](O)[C@H]2O)[C@H]1O[C@@H]1O[C@H](CO)[C@@H](O)[C@H](O)[C@H]1O)C3` [rebaudioside A polymorph, rebaudioside A], for which the solubility in water entry is reported as “about 1.5 mg/ml”.
